We go through twelve compounds from patent publication EP0686635A1, “Pyridylthiazolidinecarboxylic acid amide derivatives, their preparation and their therapeutic uses” (Sankyo Company Limited, priority 1991, dated 1993).

As usually defined, the pIC50 is the negative decadic logarithm of the IC50, by convention in mol/L. A high value points to a low IC50.

For experiment [1], the system named is PAF-induced blood platelet aggregation. The experiment can be described thus: Inhibitory effect in vitro against PAF-induced blood platelet aggregation. The class given is cell-based. Particulars: Oryctolagus cuniculus; rabbit platelet rich plasma, stimulated with ℓ-C16:0 PAF (10⁻⁸ ∼ 3 x 10⁻⁸ M), 37°C; read-out: Platelet aggregation inhibition, IC₅₀. On the procedure: Blood samples were obtained by cardiac puncture from a rabbit and one part by volume of each sample was immediately mixed with 0.1 part of a 3.8% w/v aqueous solution of sodium citrate. A platelet rich plasma (PRP) fraction was prepared by centrifuging the samples at 150 x G for 15 minutes at room temperature, and a platelet poor plasma (PPP) fraction was then prepared by further centrifugation at 1,000 x G for 15 minutes. The platelet count in the PRP was adjusted to 6 x 10⁵ per µℓ by the addition of an appropriate amount of the PPP fraction. According to the method reported by Born et al. [G.V.R. Born et al.: J. Physiol. 62, 67 - 68 (1962)], blood platelet aggregation was determined turbidimetrically in a 6-channel aggregometer (Hemetracer, NKB, Tokyo, Japan). Aliquots of the PRP (272 µℓ) were preincubated with 3 µℓ of a solution of the test compound in dimethyl sulphoxide for 1 minute, and then stimulated with ℓ-C16:0 PAF (at a final concentration of 10⁻⁸ ∼ 3 x 10⁻⁸ M) at 37°C with stirring (100 rpm). Changes in light transmission were monitored for 5 minutes. Vehicle (dimethyl sulphoxide) controls were tested simultaneously, and the inhibitory effects of the test compounds were assessed on the maximal aggregation. The IC₅₀ values were calculated by the method of least squares.

The target of a further experiment is T1, PAF-receptor (Oryctolagus cuniculus, UniProt G1TEI7).
T1 construct: a precipitated blood platelet sample was obtained; from tissue; host or cells: rabbit blood platelets, membrane fraction from the 0.25 M / 1.5 M sucrose interface
The experiment can be described thus: Inhibitory effect on PAF-receptor binding. As to conditions: for IC50: rabbit platelet PAF-receptor membrane fraction, specific binding of ³H-PAF, read-out: Receptor binding inhibition, IC₅₀ (g/ml) (converted). On the set-up: species or system rabbit. An excerpt: Blood samples were drawn from the heart of a rabbit. 1 part by volume of each sample was mixed immediately with 1/9 part of a 0.077 M solution of disodium ethylenediaminetetraacetate. After a similar procedure to that described in Experiment 2, a precipitated blood platelet sample was obtained. This blood platelet sample was washed, and, after repeated freesing and thawing to rupture the cells, it was placed on top of two layers consisting of 0.25 M and 1.5 M sucrose solutions. By centrifugation at 63,500 x G, for 2 hours at 4°C, the fraction obtained from the interface between the 0.25 M and 1.5 M sucrose solutions was collected and is regarded as a PAF-receptor membrane fraction. A receptor binding experiment was then conducted according to a method very similar to that reported by Hwang et al. [San-Bao Hwang et al.: J. Biol. Chem. 260, 15639 - 15645 (1985)]. The specific binding of ³H-PAF was measured using a Wattman GF/C filter. A test compound was dissolved in dimethyl sulphoxide and diluted 100 fold with a buffer solution containing 0.5% bovine serum albumin. Nine parts by volume of the solution, for a receptor binding experiment, was mixed with one part of the test compound solution prepared above. The percent inhibition of the specific binding was plotted against the log of the concentration of the test compound, and the 50% inhibitory concentration (IC₅₀) was calculated from the linear line connecting all the plotted points.

Experiment [2] concerns intracutaneous reaction in rats by PAF. The experiment can be described thus: Inhibitory effect on intracutaneous reaction in rats by PAF. It counts as in vivo. Particulars: dose 6.4 mg/kg p.o., 60 minutes before intradermal PAF, leaked Evans blue vs control group. On the procedure:
Male SD rats (5 weeks old) were used as the test animals in groups, each containing 4 animals. Each rat was administered orally with a suspension of the test compound in a 0.5% w/v aqueous tragacanth solution. Sixty minutes after the administration, aqueous physiological saline containing 1.0% w/v Evans blue was injected into the tail vein in an amount of 5 ml/kg of the body weight. Immediately after the injection, 0.05 ml of a solution containing 2 µg/ml of PAF was intradermally injected into the back of the rat to induce a cutanous reaction. After 30 minutes, the rats were sacrificed using carbon dioxide, and the quantity of Evans blue which had leaked into the skin of the back was determined by the method of Harada et al. [J. Pharm. Pharmac., 23, 218 - 219 (1971)]. The inhibition rate of the compound was calculated by comparing the average amount of colourant which had leaked in the group treated with the test compound with that of control group to which no test compound was administered.
The inhibition rate was calculated according to the following equation: Inhibition rate (%) = (1 - B/A) x 100 [formula] where: A: Amount of colourant leaked in the control group B: Amount of colourant leaked in the group to which the test compound was administered.

The subject of experiment [3] is passive cutaneous anaphylaxis (PCA) in rats. The experiment can be described thus: Inhibitory effect on passive cutaneous anaphylaxis (PCA) in rats. The class given is in vivo. As to conditions: dose 6.4 mg/kg p.o., 60 minutes before antigen challenge, exuded Evans Blue vs control group. On the procedure: According to Mota's method [I. Mota, Immunology, 7, 681 - 699 (1964)], antiserum (256 times the PCA titer) of rat against egg albumin was prepared and diluted four times with physiological saline. Male SD rats (5 weeks old) were used as the test animals in groups, each containing 4 animals. The rats were sensitized by intradermal injection of 0.05 ml of the diluted antiserum solution in the dorsal position. 48 hours after this injection, a suspension of the test compound in an aqueous 0.5% w/v tragacanth solution was orally administered to the rats, which had been fasted for one day, and 60 minutes later they were injected in the caudal vein with 5 ml/kg body weight of physiological saline containing 0.4% w/v egg albumin and 1.0% w/v Evans Blue. 30 minutes after this last injection, the rats were sacrificed with carbon dioxide and the Evans Blue exuded in the dorsal intradermal portion was determined according to Harada's method (Harada et al., J. Pharm. Pharmac., 23, 218 - 219 (1971)].
The results achieved from the test groups which were treated with a test compound were evaluated to determine the inhibitory rate by comparison with the average amount of exuded dye in a control group, which was not given the test compound.
The inhibitory rate was calculated by the following equation. Inhibitory rate (%) = (1-B/A) x 100 [formula] A: amount of exuded dye in the control group B: amount of exuded dye in the test group.

pIC50: −log10 of the molar value. ≈ marks a conversion by molar mass, not a printed value. Read-outs that look alike come from different tables or passages of the source.

T1 sequence (G1TEI7 1-342): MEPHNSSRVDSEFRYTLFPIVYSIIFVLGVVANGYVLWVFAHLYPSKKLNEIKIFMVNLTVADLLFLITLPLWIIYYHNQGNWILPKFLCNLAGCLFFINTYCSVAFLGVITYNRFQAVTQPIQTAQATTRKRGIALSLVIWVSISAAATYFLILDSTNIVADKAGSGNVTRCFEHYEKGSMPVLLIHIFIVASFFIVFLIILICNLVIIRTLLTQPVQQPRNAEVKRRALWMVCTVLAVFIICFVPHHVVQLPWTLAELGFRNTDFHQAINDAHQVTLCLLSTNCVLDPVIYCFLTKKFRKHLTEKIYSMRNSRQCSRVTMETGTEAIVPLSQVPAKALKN

`O=C([C@@H]1CSC(c2cccnc2)N1)N1CCCN(CCOC(c2ccc(F)cc2)c2ccc(F)cc2)CC1` (stereo partly drawn) [Example 12, (4R)-1-[2-Bis(4-fluorophenyl)methoxyethyl]-4-[2-(3-pyridyl)thiazolidin-4-ylcarbonyl]homopiperazine]: the IC50 in experiment [1] came to 0.19 µg/mL (≈ 0.353 µM). In addition, the pIC50 at PAF-receptor was 6.41.
For the compound `O=C([C@@H]1CSC(c2cccnc2)N1)N1CCCN(CCOC(c2ccccc2)c2ccccc2)CC1` (stereo partly drawn) [Example 13, (4R)-1-(2-Diphenylmethoxyethyl)-4-[2-(3-pyridyl)thiazolidin-4-ylcarbonyl]homopiperazine], the IC50 in experiment [1] was 0.22 µg/mL (≈ 0.438 µM). The compound further showed a pIC50 at PAF-receptor of 6.56.
Regarding `O=C([C@@H]1CSC(c2cccnc2)N1)N1CCN(CCOC(c2ccc(F)cc2)c2ccc(F)cc2)CC1` (stereo partly drawn) [Example 14, (4R)-1-[2-Bis(4-fluorophenyl)methoxyethyl]-4-[2-(3-pyridyl)thiazolidin-4-ylcarbonyl]piperazine], in experiment [1], the IC50 worked out at 0.14 µg/mL (≈ 0.267 µM). Further, the pIC50 on PAF-receptor is 7.72. Also, the “Inhibitory rate (%)” value in experiment [2] is 47%.
As for `O=C(NCCN1CCN2c3ccc(F)cc3Cc3ccccc3[C@H]2C1)[C@@H]1CSC(c2cccnc2)N1` (stereo partly drawn) [Example 25, (4R)-N-{2-[(14bS)-8-Fluoro-1,2,3,4,10,14b-hexahydrodibenzo[c,f]pyrazino[1,2-a]azepin-2-yl]ethyl}-2-(3-pyridyl)thiazolidine-4-carboxamide], the “Inhibitory rate (%)” value in experiment [3] worked out at 55%.
As to `O=C(NCCN1CCN2c3ccccc3Cc3ccccc3[C@@H]2C1)[C@@H]1CSC(c2cccnc2)N1` (stereo partly drawn) [Example 16, (4R)-N-{2-[(14bR)-1,2,3,4,10,14b-Hexahydrodibenzo[c,f]pyrazino[1,2-a]azepin-2-yl]ethyl}-2-(3-pyridyl)thiazolidine-4-carboxamide], the “Inhibitory rate (%)” value in experiment [3] and in experiment [2] was 62% each time.
Take `O=C([C@@H]1CSC(c2cccnc2)N1)N1CCN(CCN2CCC(=C(c3ccccc3)c3ccccc3)CC2)CC1` (stereo partly drawn) [Example 5, (4R)-1-{2-[4-(Diphenylmethylene)-1-piperidinyl]ethyl}-4-[2-(3-pyridyl)thiazolidin-4-ylcarbonyl]piperazine]: the “Inhibitory rate (%)” value in experiment [3] stood at 42%.
Turning to `Cc1ccc(C(OCCN2CCN(C(=O)[C@@H]3CSC(c4cccnc4)N3)CC2)c2ccccc2)cc1` (some centres unmarked) [Example 6], the “Inhibitory rate (%)” value in experiment [3] is recorded as 45%. For the same compound, the IC50 was 0.055 µg/mL (≈ 0.109 µM) in experiment [1] and 41.8 nM at PAF-receptor.
As for `O=C(NCCN1CCN2c3ccccc3Cc3ccccc3[C@H]2C1)[C@@H]1CSC(c2cccnc2)N1` (stereo partly drawn) [Example 17, (4R)-N-{2-[(14bS)-1,2,3,4,10,14b-Hexahydrodibenzo[c,f]pyrazino[1,2-a]azepin-2-yl]ethyl}-2-(3-pyridyl)thiazolidine-4-carboxamide], in experiment [3], the “Inhibitory rate (%)” value came to 73%.
Consider `CN(CCOC(c1ccccc1)c1ccccc1)CCN(C)C(=O)[C@@H]1CSC(c2cccnc2)N1` (stereo partly drawn) [Example 1, (4R)-N-Methyl-N-{2-[N-(2-diphenylmethoxyethyl)-N-methylamino]ethyl}-2-(3-pyridyl)thiazolidine-4-carboxamide], for which the figures for the “Inhibitory rate (%)” value in experiment [3] and in experiment [2] were 33% and 57%, respectively. Further, the IC50 in experiment [1] is 0.063 µg/mL (≈ 0.128 µM).
Turning to `O=C([C@@H]1CSC(c2cccnc2)N1)N1CCN(CCOC(c2ccccc2)c2ccccc2)CC1` (stereo partly drawn) [Example 7, (4R)-1-(2-Diphenylmethoxyethyl)-4-[2-(3-pyridyl)thiazolidin-4-ylcarbonyl]piperazine], the IC50 in experiment [1] amounted to 0.095 µg/mL (≈ 0.194 µM). For the same compound, the pIC50 at PAF-receptor was 7.29. Also, the “Inhibitory rate (%)” value in experiment [2] is on record as 70%.
Turning to `O=C([C@@H]1CSC(c2cccnc2)N1)N1CCN(CCOC(c2ccccc2)c2ccc(Cl)cc2)CC1` (some centres unmarked) [Example 4], the IC50 in experiment [1] is 0.085 µg/mL (≈ 0.162 µM); on PAF-receptor, 51.6 nM. Further, in experiment [2], the “Inhibitory rate (%)” value stood at 64%.
On to `O=C([C@@H]1CSC(c2cccnc2)N1)N1CCN(CCOC(c2ccccc2)C2CCCCC2)CC1` (stereo partly drawn) [Example 11, (4R)-1-[2-(α-Cyclohexylbenzyloxy)ethyl]-4-[2-(3-pyridyl)thiazolidin-4-ylcarbonyl]piperazine], for which the figures for the IC50 (in experiment [1]; at PAF-receptor) were 0.072 µg/mL (≈ 0.146 µM) and 445 nM, respectively.
